In PMC12623744 (Scientific Reports, 2025):
Positions of bridges follow the written chain, without caps; N, C: chain ends. Non-standard residues stand in square brackets, D forms with d. Residues, ends and D or L forms follow the SMILES beside them. Nle = CCCC[C@H](N)C(=O)O

Experiment: Peptide stability in medium (Jurkat E6.1 cell supernatant)
Format: in vitro ADME
Conditions: human, Jurkat E6.1 cell supernatant (conditioned culture medium), Jurkat E6.1 cell supernatant (RPMI 1640, 10% FBS), 1.5 mg/mL peptide, 37 °C with stirring, RP-HPLC peak area vs peptide in water at time 0, triplicate
Method: The inhibitory effects of the peptides were also evaluated using cell line-based platform, but before performing this tests, the stability of peptides in medium used in co-culture and cytotoxicity towards cell lines used in the experiments had to be determined. After 24 h of incubation (the time when the peptides are incubated with cells), there is a clear difference in stability between peptides based on one of the interaction centres (light1 and 2 – stability is 88% and 77% respectively) and between those based on the other centre (light3, 4 and 3_E178L – stability ranging from 49% to 29%). However, all peptides, despite some degradation, are present in the sample during the experiment (Figure S5).
HVEM light1 light light light _E178L
Figure S8 . SpS binding check experiments for selected LIGHT-derived peptides and HVEM compared to negative control (HVEM protein without any ligand). Dotted line represents three times the standard deviation range. […]
experiments. […]
Peptide stability was assessed using the supernatant from the Jurkat E6.1 cell line. […] The samples were analyzed by reverse-phase high-performance liquid chromatography (RP-HPLC) on a Kromasil C8 column ([…] × 4.6 mm, 5 μm) using a gradient of 5% to 100% solvent B over 60 minutes. […]
The cytotoxic effects of the peptides were evaluated on two cell lines: Jurkat E6.1 and TCS-Ctrl (a modified BW5147 cell line). […]

Row | remaining at 24 h, 1.5 mg/mL [%] | Compound
1 | 88 | CCCC[C@H](NC(=O)[C@H](Cc1ccccc1)NC(=O)[C@H](C)NC(=O)CNC(=O)[C@@H]1CSSC[C@H](NC(=O)[C@@H](NC(=O)[C@@H](NC(=O)[C@H](CCC(=O)O)NC(=O)[C@H](CCC(=O)O)NC(=O)CNC(=O)[C@H](C)NC(=O)[C@H](CCC(=O)O)NC(C)=O)C(C)C)C(C)C)C(=O)N[C@@H](CCCNC(=N)N)C(=O)N[C@@H](C(C)C)C(=O)N[C@@H](CC(C)C)C(=O)N[C@@H](CC(=O)O)C(=O)N[C@@H](CCC(=O)O)C(=O)N[C@@H](CCCNC(=N)N)C(=O)N[C@@H](CC(C)C)C(=O)N[C@@H](C(C)C)C(=O)N[C@@H](CCCNC(=N)N)C(=O)N[C@@H](CC(C)C)C(=O)N[C@@H](CCCNC(=N)N)C(=O)N[C@@H](CC(=O)O)C(=O)NCC(=O)N[C@@H]([C@@H](C)O)C(=O)N[C@@H](CCCNC(=N)N)C(=O)N[C@@H](CO)C(=O)N[C@@H](Cc2ccc(O)cc2)C(=O)N1)C(=O)N[C@H](C(N)=O)C(C)C [light1] (Ac-EAGEEVVCRVLDERLVRLRDGTRSYCGAF[Nle]V-NH2; disulfide 8-26)
2 | 77 | CC(=O)N[C@@H](CCC(=O)O)C(=O)N[C@H]1CSSC[C@@H](C(=O)N[C@H](C(N)=O)C(C)C)NC(=O)[C@H](Cc2ccccc2)NC(=O)[C@H](C)NC(=O)CNC(=O)[C@H](Cc2ccccc2)NC(=O)[C@H](Cc2ccc(O)cc2)NC(=O)[C@H](CO)NC(=O)[C@H](CCCNC(=N)N)NC(=O)[C@H]([C@@H](C)O)NC(=O)CNC(=O)[C@H](CC(=O)O)NC(=O)[C@H](CCCNC(=N)N)NC(=O)[C@H](CC(C)C)NC(=O)[C@H](CCCNC(=N)N)NC(=O)[C@H](C(C)C)NC(=O)[C@H](CC(C)C)NC(=O)[C@H](CCCNC(=N)N)NC(=O)[C@H](CCC(=O)O)NC(=O)[C@H](CC(=O)O)NC(=O)[C@H](CC(C)C)NC(=O)[C@H](C(C)C)NC(=O)[C@H](CCCNC(=N)N)NC(=O)[C@H](C(C)C)NC(=O)[C@H](C(C)C)NC(=O)[C@H](C(C)C)NC(=O)[C@H](CCC(=O)O)NC(=O)[C@H](CCC(=O)O)NC(=O)CNC1=O [light2] (Ac-ECGEEVVVRVLDERLVRLRDGTRSYFGAFCV-NH2; disulfide 2-30)
